In the assay the test system is L1210 leukemia ip in BDF1 mice, survival T/C. The assay can be described thus: NCI In Vivo Anticancer Drug Screen. Data for tumor model L1210 Leukemia (intraperitoneal) in B6D2F1 (BDF1) mice. As to conditions: endpoint: mean survival time, higher = longer survival. The method in brief:
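Antitumor effect is assessed in tumor-bearing animals. Survival in the compound arm is compared with a vehicle-dosed control arm and expressed as their quotient.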

The mark [1] stands for this setting: dose: 100.0 mg/kg/injection, schedule: Q01DX009 (ip), vehicle: Klucel (hydroxypropylcellulose) (HPC).
Where [2] appears, read: dose: 200.0 mg/kg/injection, schedule: Q01DX009 (ip), vehicle: Klucel (hydroxypropylcellulose) (HPC).
[3] abbreviates: dose: 400.0 mg/kg/injection, schedule: Q01DX009 (ip), vehicle: Klucel (hydroxypropylcellulose) (HPC).
Setting [4] is: dose: 50.0 mg/kg/injection, schedule: Q01DX009 (ip), vehicle: saline.
[5] abbreviates: dose: 100.0 mg/kg/injection, schedule: Q04DX003 (ip), vehicle: saline.
[6] abbreviates: dose: 200.0 mg/kg/injection, schedule: Q04DX003 (ip), vehicle: saline.
Setting [7] is: dose: 50.0 mg/kg/injection, schedule: Q01DX009 (ip), vehicle: saline with Tween-80.
Where [8] appears, read: dose: 12.5 mg/kg/injection, schedule: Q01DX009 (ip), vehicle: saline.
Setting [9] is: dose: 25.0 mg/kg/injection, schedule: Q01DX009 (ip), vehicle: saline.
Where [10] appears, read: dose: 100.0 mg/kg/injection, schedule: Q01DX001 (ip), vehicle: Klucel (hydroxypropylcellulose) (HPC).

Each structure is given as a SMILES string. Several values for one entry are separate records, joined by “and”; a condition that tells them apart may be missing. Equal entries are not always repeated. Toxic doses and inconclusive results are not listed.

`CNC(=O)Nc1nc2ccccc2s1`: the T/C (dose: 50.0 mg/kg/injection, schedule: Q04DX002 (ip), vehicle: Klucel (hydroxypropylcellulose) (HPC)) is 91 % of control; the T/C under setting [1] was 103 % of control; the T/C (dose: 100.0 mg/kg/injection, schedule: Q04DX002 (ip), vehicle: Klucel (hydroxypropylcellulose) (HPC)) is 97 % of control and 98 % of control; the T/C under setting [2] is 93 % of control; the T/C (dose: 200.0 mg/kg/injection, schedule: Q04DX002 (ip), vehicle: Klucel (hydroxypropylcellulose) (HPC)) was 94 % of control; the T/C under setting [3] is 93 % of control. Further, the T/C (dose: 400.0 mg/kg/injection, schedule: Q04DX002 (ip), vehicle: Klucel (hydroxypropylcellulose) (HPC)) was 90 % of control.

Turning to `CCOC(=O)N/N=C/c1ccccc1OC`, the T/C reads like this: (dose: 75.0 mg/kg/injection, schedule: Q01DX001 (ip), vehicle: saline) 90 % of control; (dose: 150.0 mg/kg/injection, schedule: Q01DX001 (ip), vehicle: saline) 90 % of control; (dose: 300.0 mg/kg/injection, schedule: Q01DX001 (ip), vehicle: saline) 96 % of control.

Regarding `O=[N+]([O-])c1ccccc1N=Nc1c(O)[nH]c2ccc(S(=O)(=O)O)cc12`, the T/C is 94 % of control (dose: 100.0 mg/kg/injection, schedule: Q01DX001 (ip), vehicle: acetone); 92 % of control (dose: 200.0 mg/kg/injection, schedule: Q01DX001 (ip), vehicle: acetone); 100 % of control (dose: 400.0 mg/kg/injection, schedule: Q01DX001 (ip), vehicle: acetone).

Consider `CCC1(C)NC(=O)NC1=O` (stereo unspecified), for which the T/C was 100 % of control under setting [4]; 112 % of control (dose: 100.0 mg/kg/injection, schedule: Q01DX001 (ip), vehicle: saline); 98 % of control (dose: 100.0 mg/kg/injection, schedule: Q01DX009 (ip), vehicle: saline); 106 % of control under setting [5]; 102 % of control (dose: 200.0 mg/kg/injection, schedule: Q01DX001 (ip), vehicle: saline); 111 % of control (dose: 200.0 mg/kg/injection, schedule: Q01DX009 (ip), vehicle: saline). The T/C was 101 % of control under setting [6]; 100 % of control (dose: 400.0 mg/kg/injection, schedule: Q01DX001 (ip), vehicle: saline); 109 % of control (dose: 400.0 mg/kg/injection, schedule: Q01DX009 (ip), vehicle: saline); 101 % of control (dose: 400.0 mg/kg/injection, schedule: Q04DX003 (ip), vehicle: saline).

In the case of `COc1cc(/C=N/NC(C)=O)ccc1O`, the T/C under setting [7] is 97 % of control; the T/C (dose: 100.0 mg/kg/injection, schedule: Q01DX009 (ip), vehicle: saline with Tween-80) is 94 % of control; the T/C (dose: 200.0 mg/kg/injection, schedule: Q01DX009 (ip), vehicle: saline with Tween-80) was 110 % of control.

For `FC(F)(F)C1=NC(=S)C(c2[nH]c(C(F)(F)F)nc2S)=N1`, the T/C runs as follows: (dose: 25.0 mg/kg/injection, schedule: Q01DX009 (ip), vehicle: water) 91 % of control; (dose: 50.0 mg/kg/injection, schedule: Q01DX009 (ip), vehicle: water) 96 % of control; (dose: 100.0 mg/kg/injection, schedule: Q01DX009 (ip), vehicle: water) 96 % of control; (dose: 200.0 mg/kg/injection, schedule: Q01DX009 (ip), vehicle: water) 110 % of control.

Turning to `N#CC12OC1(C#N)C(=O)C1(Cl)C3C=CC(C3)C1(Cl)C2=O` (stereo unspecified), the T/C was 102 % of control under setting [8]; 102 % of control under setting [9]; 96 % of control and 106 % of control under setting [4].

On to `[Cu+2].[NH-]c1ccccc1C(=O)O.[NH-]c1ccccc1C(=O)O`, for which the T/C is 101 % of control (dose: 12.5 mg/kg/injection, schedule: Q01DX009 (ip), vehicle: saline with Tween-80); 97 % of control (dose: 12.5 mg/kg/injection, schedule: Q04DX003 (ip), vehicle: saline with Tween-80); 101 % of control (dose: 25.0 mg/kg/injection, schedule: Q01DX009 (ip), vehicle: saline with Tween-80); 97 % of control (dose: 25.0 mg/kg/injection, schedule: Q04DX003 (ip), vehicle: saline with Tween-80); 88 % of control under setting [7]; 90 % of control (dose: 50.0 mg/kg/injection, schedule: Q04DX003 (ip), vehicle: saline with Tween-80).

For `CCCCCCCCc1ccc(NNC(N)=S)cc1`, the T/C reads like this: (dose: 3.12 mg/kg/injection, schedule: Q01DX009 (ip), vehicle: saline) 93 % of control; (dose: 6.25 mg/kg/injection, schedule: Q01DX009 (ip), vehicle: saline) 101 % of control and 92 % of control; under setting [8], 103 % of control; under setting [9], 100 % of control.

With `CSc1nc(SC)c(Cl)c(C(Cl)Cl)n1`, the T/C (dose: 100.0 mg/kg/injection, schedule: Q04DX003 (ip), vehicle: Klucel (hydroxypropylcellulose) (HPC)) was 98 % of control; the T/C (dose: 200.0 mg/kg/injection, schedule: Q04DX003 (ip), vehicle: Klucel (hydroxypropylcellulose) (HPC)) was 94 % of control; the T/C (dose: 400.0 mg/kg/injection, schedule: Q04DX003 (ip), vehicle: Klucel (hydroxypropylcellulose) (HPC)) was 102 % of control.

As to `C/C=N/N(C)C=O`, the T/C under setting [5] is 104 % of control and the T/C under setting [6] was 119 % of control.

`Nc1nc(SCc2ccccc2)cc(C(=O)O)n1`: the T/C runs as follows: (dose: 25.0 mg/kg/injection, schedule: Q01DX Z (ip), vehicle: methylcellulose (MC)) 92 % of control; (dose: 50.0 mg/kg/injection, schedule: Q01DX Z (ip), vehicle: methylcellulose (MC)) 101 % of control.

`NC(=O)N1Cc2ccccc2Cc2ccccc2C1`: the T/C by setting is: under setting [1], 101 % of control; under setting [2], 92 % of control; under setting [3], 95 % of control.

Turning to `CCC(CC)OC(=O)Nc1cccc(OC(=O)NC)c1`, the T/C is, setting by setting: (dose: 100.0 mg/kg/injection, schedule: Q04DX003 (ip), vehicle: saline with Tween-80) 104 % of control; (dose: 200.0 mg/kg/injection, schedule: Q04DX003 (ip), vehicle: saline with Tween-80) 95 % of control.

For the molecule `O=C(O)CCc1c(O)cc(Br)c(O)c1Br`, the T/C under setting [10] is 90 % of control; the T/C (dose: 200.0 mg/kg/injection, schedule: Q01DX001 (ip), vehicle: Klucel (hydroxypropylcellulose) (HPC)) was 93 % of control; the T/C (dose: 400.0 mg/kg/injection, schedule: Q01DX001 (ip), vehicle: Klucel (hydroxypropylcellulose) (HPC)) was 96 % of control.

With `Nc1nc(N)c2c(Cl)c(CNc3ccc(C(=O)NC(CCCC(=O)O)C(=O)O)cc3)ccc2n1` (stereo unspecified), the T/C by setting is: (dose: 1.0 mg/kg/injection, schedule: Q01DX009 (ip), vehicle: saline) 170 % of control; (dose: 2.0 mg/kg/injection, schedule: Q01DX009 (ip), vehicle: saline) 150 % of control and 152 % of control; (dose: 4.0 mg/kg/injection, schedule: Q01DX009 (ip), vehicle: saline) 178 % of control and 206 % of control.

With `CN(C)/C=C/c1nnc([N+](=O)[O-])s1`, the T/C was 100 % of control (dose: 62.0 mg/kg/injection, schedule: Q04DX003 (ip), vehicle: Klucel (hydroxypropylcellulose) (HPC)); 98 % of control (dose: 123.0 mg/kg/injection, schedule: Q04DX003 (ip), vehicle: Klucel (hydroxypropylcellulose) (HPC)); 98 % of control (dose: 256.0 mg/kg/injection, schedule: Q04DX003 (ip), vehicle: Klucel (hydroxypropylcellulose) (HPC)); 100 % of control (dose: 512.0 mg/kg/injection, schedule: Q04DX003 (ip), vehicle: Klucel (hydroxypropylcellulose) (HPC)).

Take `CC1(C)N=C(N)N=C(N)N1c1ccc(CCNC(=O)c2ccc(S(=O)(=O)F)cc2)cc1`: the T/C is 90 % of control (dose: 25.0 mg/kg/injection, schedule: Q01DX001 (ip), vehicle: Klucel (hydroxypropylcellulose) (HPC)); 96 % of control (dose: 50.0 mg/kg/injection, schedule: Q01DX001 (ip), vehicle: Klucel (hydroxypropylcellulose) (HPC)); 90 % of control under setting [10].

Take `Cc1ccc2ncccc2c1N` (tested in a mixture with another compound): the T/C was 93 % of control (dose: 100.0 mg/kg/injection, schedule: Q04DX003 (ip), vehicle: gum acacia); 98 % of control (dose: 200.0 mg/kg/injection, schedule: Q04DX003 (ip), vehicle: gum acacia); 94 % of control (dose: 400.0 mg/kg/injection, schedule: Q04DX003 (ip), vehicle: gum acacia).

These data come from PubChem BioAssay AID248 (DTP/NCI, 2004).
